Assay results: US20250228239A1, “MOLECULES HAVING PESTICIDAL UTILITY, AND INTERMEDIATES, COMPOSITIONS, AND PROCESSES, RELATED THERETO” (priority 2024, published 2025)
Where two headings read alike, the source gives them in different places.

Experiments:
Assay type in all cases: in vivo
[1] = test system: Beet Armyworm (Spodoptera exigua, LAPHEG); assay: Bioassays on Beet Armyworm (BAW), 128-well diet tray assay; details: Spodoptera exigua
Summary of the method: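 Second-instar larvae, one to five per well, were placed on artificial diet surface-treated with 50 μg/cm^2 compound in 90:10 acetone-water, eight wells per treatment. Trays were held 5–7 days at 25 °C, 14:10 light-dark. Percent mortality per well was averaged over eight wells.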

[2] = test system: Cabbage Looper (Trichoplusia ni, TRIPNI); assay: Bioassays on Cabbage Looper (CL), 128-well diet tray assay; details: Trichoplusia ni
Summary of the method: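 One to five second-instar larvae per well on artificial diet surface-treated with 50 μg/cm^2 test molecule (applied in 90:10 acetone-water, dried). Held 5–7 days at 25° C, 14:10 light-dark; percent mortality recorded per well and averaged over eight wells.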

[3] = test system: Yellow Fever Mosquito (Aedes aegypti, AEDSAE); details: for YFM rating: Table ABC / ABC-DP rating
Summary of the method: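 Mortality after 3 days at room temperature is the read-out, scored well by well and converted to a rating. Test molecules came from 4000 ppm stocks in DMSO, further diluted in 90:10 water/acetone, and were exposed to roughly 1-day-old larvae suspended in liver-powder water.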

[4] = Beet Armyworm, rating class, read-out: BAW
[5] = Cabbage Looper, rating class, read-out: CL
[6] = Yellow Fever Mosquito, rating class
[7] = Beet Armyworm, Table ABC / ABC-DP rating, read-out: BAW rating
[8] = Cabbage Looper, Table ABC / ABC-DP rating, read-out: CL rating
[9] = Table ABC: Biological Results, species BAW, read-out: BAW
[10] = Table ABC: Biological Results, species CL, read-out: CL
[11] = Table ABC: Biological Results, species YFM

Compound | pest or weed control at 50 µg/cm2 [1, 4] [%] | pest or weed control at 50 µg/cm2 [2, 5] [%] | YFM [3, 6] | pest or weed control at 50 µg/cm2 [1, 9] [%] | pest or weed control at 50 µg/cm2 [2, 10] [%] | YFM [3, 11] | also measured
CN(C(=O)CC#N)c1c(F)ccc(NC(=O)c2cc(NC(=O)[C@H]3[C@H](c4ccc(F)c(C(F)(F)F)c4)C3(Cl)Cl)ccc2Cl)c1F [F1752, 2-Chloro-N-(3-(2-cyano-N-methylacetamido)-2,4-difluorophenyl)-5-((1R,3R)-2,2-dichloro-3-(4-fluoro-3-(trifluoromethyl)phenyl)cyclopropane-1-carboxamido)benzamide] | 50 to 100 | 50 to 100 | A (80–100) |  |  |  | 
CC(OC(F)(F)F)C(=O)Nc1c(F)ccc(NC(=O)c2cc(NC(=O)[C@H]3[C@H](c4ccc(Cl)c(Cl)c4)C3(Cl)Cl)ccc2Cl)c1F (stereo partly drawn) [F1767, 2-Chloro-5-((1R,3R)-2,2-dichloro-3-(3,4-dichlorophenyl)cyclopropane-1-carboxamido)-N-(2,4-difluoro-3-(2-(trifluoromethoxy)propanamido)phenyl)benzamide] |  |  |  |  |  |  | pest or weed control at 50 µg/cm2 [1, 7]: 50 to 100%; pest or weed control at 50 µg/cm2 [2, 8]: 50 to 100%; YFM rating ([3]; Yellow Fever Mosquito): A (80–100)
O=C(Nc1ccc(F)c(NC(=O)C(F)F)c1F)c1cc(NC(=O)[C@H]2[C@H](c3ccc(F)c(C(F)(F)F)c3)C2(Cl)Cl)c(F)cc1Cl [F1729, 2-Chloro-5-((1R,3R)-2,2-dichloro-3-(4-fluoro-3-(trifluoromethyl)phenyl)cyclopropane-1-carboxamido)-N-(3-(2,2-difluoroacetamido)-2,4-difluorophenyl)-4-fluorobenzamide] | 50 to 100 | 50 to 100 | A (80–100) |  |  |  | 
O=C(Nc1ccc(F)c(NC(=O)C(F)F)c1F)c1cc(NC(=O)[C@H]2[C@H](c3cccc(Br)c3)C2(Cl)Cl)ccc1Cl (relative stereo) [F1600, trans-5-(3-(3-Bromophenyl)-2,2-dichlorocyclopropane-1-carboxamido)-2-chloro-N-(3-(2,2-difluoroacetamido)-2,4-difluorophenyl)benzamide] | 50 to 100 | 50 to 100 | A (80–100) |  |  |  | 
CCC(F)(F)CNC(=O)c1cc(NC(=O)[C@H]2[C@H](c3cc(Cl)cc(Cl)c3)C2(Cl)Cl)ccc1Cl (relative stereo) [F2086, trans-2-Chloro-5-(2,2-dichloro-3-(3,5-dichlorophenyl)cyclopropane-1-carboxamido)-N-(2,2-difluorobutyl)benzamide] |  |  |  |  |  |  | pest or weed control at 50 µg/cm2 [1, 7]: 50 to 100%; pest or weed control at 50 µg/cm2 [2, 8]: 50 to 100%; YFM rating ([3]; Yellow Fever Mosquito): A (80–100)
Cc1cc(NC(=O)[C@H]2[C@H](c3ccc(F)c(Cl)c3)C2(Cl)Cl)cc(C(=O)Nc2ccc(F)cc2)c1Cl (relative stereo) [F1184, trans-2-Chloro-5-(2,2-dichloro-3-(3-chloro-4-fluorophenyl)cyclopropane-1-carboxamido)-N-(4-fluorophenyl)-3-methylbenzamide] |  |  |  | 50 to 100 | 50 to 100 | A (80–100) | 
O=C(Nc1ccc(F)cc1F)c1cc(NC(=O)[C@H]2[C@H](c3cc(Br)cc(S(F)(F)(F)(F)F)c3)C2(Cl)Cl)ccc1Cl (relative stereo) [F1031, trans-5-(3-(3-Bromo-5-(pentafluoro-λ^6-sulfanyl)phenyl)-2,2-dichlorocyclopropane-1-carboxamido)-2-chloro-N-(2,4-difluorophenyl)benzamide] |  |  |  | 50 to 100 | 50 to 100 | A (80–100) | 
O=C(Nc1ccc(F)c(NC(=O)C(F)(F)Cl)c1F)c1cc(NC(=O)[C@H]2[C@H](c3cc(Cl)c(Cl)c(Cl)c3)C2(Cl)Cl)ccc1Cl [F1686, 2-Chloro-N-(3-(2-chloro-2,2-difluoroacetamido)-2,4-difluorophenyl)-5-((1R,3R)-2,2-dichloro-3-(3,4,5-trichlorophenyl)cyclopropane-1-carboxamido)benzamide] | 50 to 100 | 50 to 100 | A (80–100) |  |  |  | 
O=C(Nc1ccc(F)cc1F)c1cc(NC(=O)[C@H]2[C@@H](c3cc(C(F)(F)F)cc(Cl)c3F)C2(Cl)Cl)ccc1Cl (relative stereo) [F1051, cis-2-Chloro-5-(2,2-dichloro-3-(3-chloro-2-fluoro-5-(trifluoromethyl)phenyl)cyclopropane-1-carboxamido)-N-(2,4-difluorophenyl)benzamide] |  |  |  | 50 to 100 | 50 to 100 | A (80–100) | 
O=C(Nc1ccc(F)cc1)c1cc(NC(=O)[C@H]2[C@H](c3cc(Cl)c(Cl)c(Br)c3)C2(Cl)Cl)ccc1Cl (relative stereo) [F1005, trans-5-(3-(3-bromo-4,5-dichlorophenyl)-2,2-dichlorocyclopropane-1-carboxamido)-2-chloro-N-(4-fluorophenyl)benzamide] |  |  |  | 50 to 100 | 50 to 100 | A (80–100) | 
O=C(CC1CC1)Nc1c(F)ccc(NC(=O)c2cc(NC(=O)[C@H]3[C@H](c4ccc(Cl)c(Cl)c4)C3(Cl)Cl)ccc2Cl)c1F [F1417, 2-Chloro-N-(3-(2-cyclopropylacetamido)-2,4-difluorophenyl)-5-((1R,3R)-2,2-dichloro-3-(3,4-dichlorophenyl)cyclopropane-1-carboxamido)benzamide] | 50 to 100 | 50 to 100 | A (80–100) |  |  |  | 
CCNC(=O)c1c(Cl)ccc(NC(=O)[C@H]2[C@H](c3ccc(F)c(Cl)c3)C2(Cl)Cl)c1Cl (relative stereo) [F2019, trans-2,6-Dichloro-3-(2,2-dichloro-3-(3-chloro-4-fluorophenyl)cyclopropane-1-carboxamido)-N-ethylbenzamide] |  |  |  |  |  |  | pest or weed control at 50 µg/cm2 [1, 7]: 50 to 100%; pest or weed control at 50 µg/cm2 [2, 8]: 50 to 100%; YFM rating ([3]; Yellow Fever Mosquito): A (80–100)
Cc1cc(NC(=O)C(F)F)ccc1NC(=O)c1cc(NC(=O)[C@H]2[C@H](c3ccc(Cl)c(Cl)c3)C2(Cl)Cl)ccc1Cl (relative stereo) [F1062, trans-2-Chloro-5-(2,2-dichloro-3-(3,4-dichlorophenyl)cyclopropane-1-carboxamido)-N-(4-(2,2-difluoroacetamido)-2-methylphenyl)benzamide] |  |  |  | 50 to 100 | 50 to 100 | A (80–100) | 
CCOC(C)C(=O)Nc1c(F)ccc(N(C)C(=O)c2cc(NC(=O)[C@H]3[C@H](c4ccc(Cl)c(Cl)c4)C3(Cl)Cl)ccc2Cl)c1F (stereo partly drawn) [F1794, 2-Chloro-5-((1R,3R)-2,2-dichloro-3-(3,4-dichlorophenyl)cyclopropane-1-carboxamido)-N-(3-(2-ethoxypropanamido)-2,4-difluorophenyl)-N-methylbenzamide] |  |  |  |  |  |  | pest or weed control at 50 µg/cm2 [1, 7]: 50 to 100%; pest or weed control at 50 µg/cm2 [2, 8]: 50 to 100%; YFM rating ([3]; Yellow Fever Mosquito): B (More than 0 – Less than 80)
O=C(Nc1ccc(F)c(NC(=O)C2CCCO2)c1F)c1cc(NC(=O)[C@H]2[C@H](c3ccc(Cl)c(C(F)(F)F)c3)C2(Cl)Cl)ccc1Cl (stereo partly drawn) [F1661, N-(3-(2-Chloro-5-((1R,3R)-2,2-dichloro-3-(4-chloro-3-(trifluoromethyl)phenyl)cyclopropane-1-carboxamido)benzamido)-2,6-difluorophenyl)tetrahydrofuran-2-carboxamide] | 50 to 100 | 50 to 100 | A (80–100) |  |  |  | 
